Measurements: PubChem BioAssay AID179 (DTP/NCI, 2004)
Active and inactive are the calls of the source.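 The calls were made as follows: active = compounds giving half or more protection of infected cells from virus-caused growth loss, again on retest; inactive = the rest.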 Where a SMILES comes first, the peptide text is derived from it.

Test system: CEM cells HIV-1 protection, formazan growth assay
Test: NCI AIDS Antiviral Assay
Settings: for IC50: measured here: growth of uninfected CEM cells
Method in brief: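 Protection of CEM cells against HIV-1 was scored from cell growth (soluble formazan) across five concentrations, with parallel uninfected cells. Lack of protection may reflect toxicity.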

Structure (SMILES)	EC50 [µM]	IC50 [µM]	outcome
COc1cc2c(c([N+](=O)[O-])c1)NCCS2	> 200	> 200	
O=C1C(c2[nH]c3cc4c(cc3c2O)OCO4)=Nc2cc3c(cc21)OCO3	> 100	14.8	
COc1cccc(N2C(=O)CSC2c2c[nH]c3ccccc23)c1 (stereo unspecified)	> 22.4	> 22.4	
O=C(O)c1ccccc1NS(=O)(=O)c1ccc(Cl)cc1			inactive
C/C(=C\O[Si](C)(C)C)c1ccccc1	> 200	> 200	
CN(C)c1ncnc2c1ncn2C1C=CC(COS(N)(=O)=O)C1 (stereo unspecified)	> 200	> 200	
CC(=O)OC1CCC2(C)C(=CCC3C2CCC2(C)C3CC3N(c4ccccc4Cl)C32C#N)C1 (stereo unspecified)	> 21.4	> 21.4	
O=C(/C=C/c1ccccc1Cl)c1cccc2ccccc12	> 9.33	> 9.33	
COc1c(OC(C)=O)ccc(/C=C2\N=C(C)OC2=O)c1[N+](=O)[O-]			inactive
CCCCCCCCCCCCn1[se]c2ccccc2c1=O	5.01	5.5	
COc1c(-c2cccs2)oc2c(CC(=O)O)cccc2c1=O	> 200	91.2	
O=C(Cn1c2ccc(Br)cc2c2nc3ccccc3nc21)NC1CCCCC1	> 100	> 100	
Cc1c(C(=O)Nc2ccc(Cl)cc2)nc(N)nc1-c1cccc(Cl)c1	> 174	> 174	
Nc1ncc(C2[C@H](CNC(=O)c3cc(Br)c[nH]3)C(CNC(=O)c3cc(Br)c[nH]3)[C@@H]2c2cnc(N)[nH]2)[nH]1 (stereo partly specified)			active
O=C1OCCOCCOCCOCCOCCOCCOC(=O)c2cccc1n2	> 107	56.2	
Cc1nc(N)c(N=O)c(=O)[nH]1	> 200	> 200	
CN(C)C(=S)N/N=C\C=N/NC(=S)N(C)C	> 0.2	0.117	

Structure (SMILES)	EC50 [µM]	IC50 [µM]	outcome
NC(C/[N+]([O-])=N/O)C(=O)O (stereo unspecified)	> 11	2.4	
NCC=C1C2CC3CC(C2)CC1C3			inactive
CC(=C(c1ccccc1)c1ccccc1)N1C(=O)CC(=O)N1C	> 200	120	
CC(=O)NC1=C(C)C(=O)c2c(nc3n2CCC3OC(=O)c2ccccc2)C1=O (stereo unspecified)	> 200	0.977	
COc1cc(/C=C/C(=O)CC(=O)/C=C/c2ccc(O)cc2)ccc1O	> 200	11.7	
Cc1c([N+](=O)[O-])c(=O)oc2c1ccc1occc(=O)c12	> 132	117	
COc1ccc(/C(Cl)=C(\CNc2ccccn2)c2ccccc2)cc1OC	> 200	> 200	
CCC(C)[C@@H]1NC(=O)[C@@H]2CCCN2C(=O)C(CC(O)CCl)OC(=O)CCNC(=O)[C@H](C)N(C)C(=O)[C@H](C(C)C)N(C)C1=O (stereo partly specified) (HELM PEPTIDE1{[CCC(C)[C@H](N[*:1])C(=O)[*:2]].[meV].[meA].[bAla].[O=C(C(CC(O)CCl)O[*:1])[*:2]].P}$PEPTIDE1,PEPTIDE1,1:R1-6:R2$$$V2.0)	> 2	0.11	
Cc1[nH]n(-c2nc(-c3ccccc3)cc(=O)[nH]2)c(=O)c1CCO	> 200	> 200	
CC(=O)Oc1ccc(/C=C/C(=O)O[C@@H](C)[C@H](C)OC(=O)/C=C/c2ccc(OC(C)=O)c(OC(C)=O)c2)cc1OC(C)=O	> 100	5.62	
CSC1=N/C(=C\c2cccs2)C(=O)N1CN1CCCCC1	> 200	> 200	
CN(C)[C@@H]1C(=O)C(C(N)=O)=C(O)[C@@]2(O)C(=O)C3=C(O)c4c(O)ccc(Cl)c4[C@@](C)(O)[C@H]3C[C@@H]12	> 14.1	> 14.1	
COc1ccc2c(c1)CCC1=C2CCC(=O)C1C (stereo unspecified) (tested in a mixture with another compound)	> 200	7.94	
O=C1NCCS(=O)(=O)N2CCC[C@@H]12	> 1230	> 1230	
CC(=O)OCCC(O[Si](c1ccccc1)(c1ccccc1)C(C)(C)C)C(C)(C)O (stereo unspecified)			inactive
CC(C)(C)c1cc(S(=O)(=O)O)c2oc(-c3ccccc3)cc(=O)c2c1	> 200	> 200	
